In US20060223996A1, “IL-12 modulatory compounds” (Synta Pharmaceuticals Corp., priority 2004, published 2006):

Tested on: IL-12
Test: Human in vitro assay: inhibition of IL-12 production in IFNγ/LPS- or IFNγ/SAC-stimulated human PBMC or THP-1 cells (ELISA)
Assay type: cell-based
Settings: read-out: IC50 Range (representative in vitro IC50 data)
Source text: The biological activities of a heterocyclic compound can be evaluated by a number of cell-based assays. One of such assays can be conducted using cells from human peripheral blood mononuclear cells (PBMC) or human monocytic cell line (THP-1). The cells are stimulated with a combination of human interferon-γ (IFNγ) and lipopolysaccharide or a combination of IFNγ and Staphylococcus aureus Cowan I in the presence of a test compound. The level of inhibition of IL-12 production can be measured by determining the amount of p70 by using a sandwich ELISA assay with anti-human IL-12 antibodies. IC50 of the test compound can then be determined. Specifically, PBMC or THP-1 cells are incubated with the test compound. Cell viability was assessed using the bioreduction of MTS [3-(4,5-dimethylthiazol-2-yl)-5-(3-carboxymethoxyphenyl)-2-(4-sulfophenyl)-2H-tetrazolium](Promega, Madison, Wis.).
Human In Vitro Assay. Human PBMC were isolated by centrifugation using Ficoll-Paque (Pharmacia Biotech, Uppsala, Sweden) and prepared in RPMI medium supplemented with 10% fetal calf serum (FCS), 100 U/mL penicillin, and 100 μg/mL streptomycin. PBMC were plated in wells of a 96-well plate at a concentration of 5×10^5 cells/well, and primed by adding IFNγ (30 U/mL) for 22 h and stimulated by adding LPS (1 μg/mL), or by adding IFNγ (100 U/mL) and then stimulated by adding SAC (0.01%). A test pyrimidine compound was dissolved in DMSO, and added to wells of the 96-well plate. The final DMSO concentration was adjusted to 0.25% in all cultures, including the compound-free control. Human THP-1 cells were plated in wells, primed by adding IFNγ (100 U/mL) for 22 h and stimulated by adding SAC (0.025%) in the presence of different concentrations of the pyrimidine compound. Cell-free supernatants were taken 18 h later for measurement of cytokines. Cell viability was assessed using the bioreduction of MTS. Cell survival was estimated by determining the ratio of the absorbance in compound-treated groups versus compound-free control.
The supernatant was assayed for the amount of IL-12p40, IL-12p70, or IL-10 by using a sandwich ELISA with anti-human antibodies, i.e., a Human IL-12 p40 ELISA kit from R&D Systems (Berkeley, Calif.), and a Human IL-12 p70 or IL-10 ELISA kit from Endogen (Cambridge, Mass.). Assays were based on the manufacturer's instructions.
The biological activities of pyrimidine compounds were tested on human PBMC or THP-1 cells.

Row | IC50 [nM] | Compound
1 | < 1000 | COCCN(C)c1cc(NC(=O)Nc2ccc3[nH]c(C)c(C)c3c2)nc(N2CCOCC2)n1 [Compound 265, 1-(2,3-dimethyl-1H-indol-5-yl)-3-(6-((2-methoxyethyl)(methyl)amino)-2-morpholinopyrimidin-4-yl)urea]
2 | < 1000 | Cc1[nH]c2ccc(NC(=O)c3cccc(N4CCOCC4)n3)cc2c1C [Compound 168, 6-Morpholin-4-yl-pyridine-2-carboxylic acid (2,3-dimethyl-1H-indol-5-yl)-amide]
3 | < 1000 | Cc1[nH]c2ccc(NC(=O)c3cc(N4CCOCC4)cc(N4CCOCC4)n3)cc2c1C [Compound 30, 4,6-Di-morpholin-4-yl-pyridine-2-carboxylic acid (2,3-dimethyl-1H-indol-5-yl)-amide]
4 | ≥ 1000 | COCCN(C)c1cc(C(=O)Nc2nnc(C(C)(C)C)s2)nc(N2CCOCC2)n1 [Compound 236, 6-[(2-Methoxy-ethyl)-methyl-amino]-2-morpholin-4-yl-pyrimidine-4-carboxylic acid (5-tert-butyl-[1,3,4]thiadiazol-2-yl)-amide]
5 | ≥ 1000 | COCCN(C)c1cc(C(=O)Nc2cccc(-c3nncn3C)c2)nc(N2CCOCC2)n1 [Compound 208, 6-((2-methoxyethyl)(methyl)amino)-N-(3-(4-methyl-4H-1,2,4-triazol-3-yl)phenyl)-2-morpholinopyrimidine-4-carboxamide]
6 | ≥ 1000 | Cc1cccc(C(=O)Nc2nc(OCCc3ccccn3)cc(N3CCOCC3)n2)c1 [Compound 75, 3-Methyl-N-[4-morpholin-4-yl-6-(2-pyridin-2-yl-ethoxy)-pyrimidin-2-yl]-benzamide]
7 | < 1000 | Cc1[nH]c2ccc(NC(=O)c3cc(NCCN(C)C)nc(N4CCOCC4)n3)cc2c1C [Compound 95, 6-(2-Dimethylamino-ethylamino)-2-morpholin-4-yl-pyrimidine-4-carboxylic acid (2,3-dimethyl-1H-indol-5-yl)-amide]
8 | < 1000 | Cc1[nH]c2ccc(NC(=O)c3cc(N(C)CC(=O)N4CCCCC4)nc(N4CCOCC4)n3)cc2c1C [Compound 113, 6-[Methyl-(2-oxo-2-piperidin-1-yl-ethyl)-amino]-2-morpholin-4-yl-pyrimidine-4-carboxylic acid (2,3-dimethyl-1H-indol-5-yl)-amide]
9 | ≥ 1000 | Cc1[nH]c2c(NC(=O)c3cc(OCCN4CCOCC4)nc(N4CCOCC4)n3)cccc2c1C [Compound 41, 2-Morpholin-4-yl-6-(2-morpholin-4-yl-ethoxy)-pyrimidine-4-carboxylic acid (2,3-dimethyl-1H-indol-7-yl)-amide]
10 | ≥ 1000 | COCCN(C)c1cc(C(=O)Nc2cccc(-c3nc(C)no3)c2)nc(N2CCOCC2)n1 [Compound 207, 6-((2-methoxyethyl)(methyl)amino)-N-(3-(3-methyl-1,2,4-oxadiazol-5-yl)phenyl)-2-morpholinopyrimidine-4-carboxamide]
11 | < 1000 | CCN1CCc2ccc(NC(=O)c3cc(OCCN4CCOCC4)nc(N4CCOCC4)n3)cc21 [Compound 221, N-(1-ethylindolin-6-yl)-2-morpholino-6-(2-morpholinoethoxy)pyrimidine-4-carboxamide]
12 | < 1000 | CN1CCCc2ccc(NC(=O)c3cc(OCCN4CCOCC4)nc(N4CCOCC4)n3)cc21 [Compound 317, 2-Morpholin-4-yl-6-(2-morpholin-4-yl-ethoxy)-pyrimidine-4-carboxylic acid (1-methyl-1,2,3,4-tetrahydro-quinolin-7-yl)-amide]
13 | ≥ 1000 | Cc1cccc(NNC(=O)c2cc(OCCc3ccccn3)nc(N3CCOCC3)n2)c1 [Compound 79, 2-Morpholin-4-yl-6-(2-pyridin-2-yl-ethoxy)-pyrimidine-4-carboxylic acid N′-m-tolyl-hydrazide]
14 | ≥ 1000 | O=C(Nc1cccc(Cl)c1)c1cc(OCCN2CCOCC2)nc(N2CCOCC2)n1 [Compound 287, 2-Morpholin-4-yl-6-(2-morpholin-4-yl-ethoxy)-pyrimidine-4-carboxylic acid (3-chloro-phenyl)-amide]
15 | < 1000 | CN1CCc2ccc(NC(=O)c3cc(OCCN4CCOCC4)nc(N4CCOCC4)n3)cc21 [Compound 214, N-(1-methylindolin-6-yl)-2-morpholino-6-(2-morpholinoethoxy)pyrimidine-4-carboxamide]
16 | < 1000 | O=C(Nc1cccc(N2CCOCC2)c1)c1cc(OCCN2CCOCC2)nc(N2CCOCC2)n1 [Compound 295, 2-Morpholin-4-yl-6-(2-morpholin-4-yl-ethoxy)-pyrimidine-4-carboxylic acid (3-morpholin-4-yl-phenyl)-amide]
17 | < 1000 | COCCN(C)c1cc(C(=O)Nc2ccc3[nH]c(C)c(C)c3c2)nc(N2CCOCC2)c1 [Compound 158, 4-[(2-Methoxy-ethyl)-methyl-amino]-6-morpholin-4-yl-pyridine-2-carboxylic acid (2,3-dimethyl-1H-indol-5-yl)-amide]
18 | ≥ 1000 | O=C(Nc1cccc(O)c1)C(=O)Nc1cc(OCCc2ccccn2)nc(N2CCOCC2)n1 [Compound 86, N-(3-Hydroxy-phenyl)-N′-[2-morpholin-4-yl-6-(2-pyridin-2-yl-ethoxy)-pyrimidin-4-yl]-oxalamide]
19 | ≥ 1000 | O=C(c1cc(OCCN2CCOCC2)nc(N2CCOCC2)n1)n1ccc2ccccc21 [Compound 54, Indol-1-yl-[2-morpholin-4-yl-6-(2-morpholin-4-yl-ethoxy)-pyrimidin-4-yl]-methanone]
20 | ≥ 1000 | Cc1[nH]c2ccc(NC(=O)c3cc(OCCN4CCCCC4)nc(N4CCOCC4)n3)cc2c1C [Compound 42, 2-Morpholin-4-yl-6-(2-piperidin-1-yl-ethoxy)-pyrimidine-4-carboxylic acid (2,3-dimethyl-1H-indol-5-yl)-amide]
21 | < 1000 | CN(C)c1cccc(NC(=O)c2cc(N(C)CC(=O)N3CCCCC3)nc(N3CCOCC3)n2)c1 [Compound 116, 6-[Methyl-(2-oxo-2-piperidin-1-yl-ethyl)-amino]-2-morpholin-4-yl-pyrimidine-4-carboxylic acid (3-dimethylamino-phenyl)-amide]
22 | ≥ 1000 | Cc1ccc(NC(=S)Nc2cc(N3CCOCC3)nc(OCCN3CCOCC3)n2)cc1 [Compound 12, 1-[6-Morpholin-4-yl-2-(2-morpholin-4-yl-ethoxy)-pyrimidin-4-yl]-3-p-tolyl-thiourea]
23 | ≥ 1000 | O=C(Nc1cccc(-n2cccn2)c1)Nc1cc(OCCN2CCOCC2)nc(N2CCOCC2)n1 [Compound 327, 1-[2-Morpholin-4-yl-6-(2-morpholin-4-yl-ethoxy)-pyrimidin-4-yl]-3-(3-pyrazol-1-yl-phenyl)-urea]
24 | < 1000 | CCc1c[nH]c2ccc(NC(=O)c3cc(N4CCC5(CC4)OCCO5)nc(N4CCOCC4)n3)cc12 [Compound 175, 6-(1,4-Dioxa-8-aza-spiro[4.5]dec-8-yl)-2-morpholin-4-yl-pyrimidine-4-carboxylic acid (3-ethyl-1H-indol-5-yl)-amide]
25 | ≥ 1000 | CC(C)N(C)c1cccc(NC(=O)c2cc(OCCN3CCOCC3)nc(N3CCOCC3)n2)c1 [Compound 308, 2-Morpholin-4-yl-6-(2-morpholin-4-yl-ethoxy)-pyrimidine-4-carboxylic acid [3-(isopropyl-methyl-amino)-phenyl]-amide]
26 | < 1000 | Cc1c(C)n(C)c2ccc(NC(=O)c3cc(N4CCOCC4)cc(N4CCOCC4)n3)cc12 [Compound 147, 4,6-Di-morpholin-4-yl-pyridine-2-carboxylic acid (1,2,3-trimethyl-1H-indol-5-yl)-amide]
27 | ≥ 1000 | CCOc1cc(N2CCOCC2)c(OCC)cc1NC(=O)c1cc(N(C)CCOC)nc(N2CCOCC2)n1 [Compound 204, N-(2,5-diethoxy-4-morpholinophenyl)-6-((2-methoxyethyl)(methyl)amino)-2-morpholinopyrimidine-4-carboxamide]
28 | < 1000 | Cc1[nH]c2ccc(NC(=O)c3cc(N4CCN(C)CC4)nc(N4CCOCC4)n3)cc2c1C [Compound 251, N-(2,3-dimethyl-1H-indol-5-yl)-6-(4-methylpiperazin-1-yl)-2-morpholinopyrimidine-4-carboxamide]
29 | < 1000 | Cc1cccc(NC(=O)Nc2cc(OCCc3ccccn3)nc(N3CCOCC3)n2)c1 [Compound 67, 1-[2-Morpholin-4-yl-6-(2-pyridin-2-yl-ethoxy)-pyrimidin-4-yl]-3-m-tolyl-urea]

Row | Compound | IC50 [nM]
30 | Cc1[nH]c2ccc(NC(=O)c3cc(NCC(=O)N4CCOCC4)nc(N4CCOCC4)n3)cc2c1C [Compound 89, 2-Morpholin-4-yl-6-(2-morpholin-4-yl-2-oxo-ethylamino)-pyrimidine-4-carboxylic acid (2,3-dimethyl-1H-indol-5-yl)-amide] | < 1000
